Experimental data: PMC5788402, “Impact of Target Warhead and Linkage Vector on Inducing Protein Degradation: Comparison of Bromodomain and Extra-Terminal (BET) Degraders Derived from Triazolodiazepine (JQ1) and Tetrahydroquinoline (I-BET726) BET Inhibitor Scaffolds” (Journal of Medicinal Chemistry, 2017)

Tests used:
[1] = molecular target: T1, Brd4 (Homo sapiens, UniProt O60885); test: Brd4 depletion in HL60 (immunoblot); assay type: cell-based; settings: 50 nM, 4 h, HL60
T1 construct: endogenous in cells; host or cells: MV4;11; HL60

[2] = molecular target: Brd4 tandem bromodomain; settings: cited from earlier work
[3] = molecular target: VCB / Brd4^BD2 ternary complex (Homo sapiens, UniProt O60885+P40337); test: ITC ternary titration, VCB into Brd4^BD2–PROTAC complex; assay type: binding; settings: for α: cooperativity, ratio between binary and ternary Kd; for α / ΔpKd ± uncertainty: Brd4^BD2; for cooperativity (α) Brd4–BD2: ternary complex formation with VCB and Brd4^BD2, as tabulated in Table 2; for ΔpKd ± uncertainty: ternary vs binary; for stoichiometry N / ΔG / ΔH / –TΔS: ternary, VCB in syringe, Brd4^BD2–PROTAC in cell
[4] = molecular target: VHL-EloC-EloB protein (VCB) (Homo sapiens, UniProt P40337); test: ITC binary titration, VCB into PROTAC; assay type: binding; settings: VCB in syringe, PROTAC in cell
[5] = molecular target: Brd4^BD2 (Homo sapiens, UniProt O60885); test: ITC binary titration, Brd4^BD2 into PROTAC; assay type: binding; settings: Brd4^BD2 in syringe, PROTAC in cell
[6] = test system: MV4;11 cells; test: Cell viability assay (CellTiter-Glo), MV4;11; assay type: cell-based; settings: Homo sapiens, antiproliferative, 48 h treatment, error = quality of curve fitting, read-out: pEC50 MV4;11 (converted)
[7] = test system: cMyc; test: cMyc depletion in MV4;11 (immunoblot); assay type: cell-based; settings: 50 nM, 4 h
[8] = molecular target: T1, Brd4; test: Brd4 depletion in MV4;11 (immunoblot); assay type: cell-based; settings: 50 nM, 4 h

Row | Brd4 depletion (%) HL60 [1] | α [3] | cooperativity (α) Brd4–BD2 [3] | ΔpKd ± uncertainty [3] | stoichiometry N [3] | ΔG [3] | ΔH [3] | –TΔS [3] | stoichiometry N [4] | ΔG [4] | ΔH [4] | –TΔS [4] | stoichiometry N [5] | ΔG [5] | ΔH [5] | –TΔS [5] | EC50 [6] | Brd4 depletion (%) MV4;11 [8] | Compound | Kd [2] | cMyc depletion (%) MV4;11 [7]
1 | –157% |  |  |  |  |  |  |  |  |  |  |  |  |  |  |  |  |  | CC(=O)N1c2ccc(-c3ccc(C(=O)O)cc3)cc2[C@H](Nc2ccc(Cl)cc2)C[C@@H]1C [compound 4] | 0.004 µM | 
2 |  | 4.7 | 4.7 | 0.66 ± 0.10 | 0.76 ± 0.07 | –10.7 ± 0.05 kcal·mol^–1 | –10.6 ± 1.3 kcal·mol^–1 | –0.07 ± 1.3 kcal·mol^–1 | 0.76 ± 0.03 | –9.75 ± 0.13 kcal·mol^–1 | –8.79 ± 0.42 kcal·mol^–1 | –0.96 ± 0.29 kcal·mol^–1 | 0.79 ± 0.03 | –10.3 ± 0.04 kcal·mol^–1 | –10.6 ± 0.5 kcal·mol^–1 | 0.31 ± 0.53 kcal·mol^–1 | 0.123 µM |  | Cc1ncsc1-c1ccc(CNC(=O)[C@@H]2C[C@@H](O)CN2C(=O)[C@@H](NC(=O)COCCOCCOCCOCCNC(=O)C[C@@H]2N=C(c3ccc(Cl)cc3)c3c(sc(C)c3C)-n3c(C)nnc32)C(C)(C)C)cc1 [compound 7] |  | 
3 | –156% | 0.2 | 0.15 | –0.83 ± 0.10 | 1.07 ± 0.01 | –8.33 ± 0.05 kcal·mol^–1 | –7.02 ± 0.11 kcal·mol^–1 | –1.31 ± 0.12 kcal·mol^–1 | 1.12 ± 0.01 | –9.46 ± 0.13 kcal·mol^–1 | –4.07 ± 0.07 kcal·mol^–1 | –5.39 ± 0.14 kcal·mol^–1 | 0.804 ± 0.003 | –11.7 ± 0.4 kcal·mol^–1 | –10.0 ± 0.1 kcal·mol^–1 | –1.71 ± 0.43 kcal·mol^–1 |  | 11/11% | CC(=O)N1c2ccc(-c3ccc(C(=O)NCCOCCOCC(=O)N[C@H](C(=O)N4C[C@H](O)C[C@H]4C(=O)NCc4ccc(-c5scnc5C)cc4)C(C)(C)C)cc3)cc2[C@H](Nc2ccc(Cl)cc2)C[C@@H]1C [compound 8, (2S,4R)-1-((S)-1-(4-((2S,4R)-1-Acetyl-4-((4-chlorophenyl)amino)-2-methyl-1,2,3,4-tetrahydroquinolin-6-yl)phenyl)-12-(tert-butyl)-1,10-dioxo-5,8-dioxa-2,11-diazatridecan-13-oyl)-4-hydroxy-N-(4-(4-methylthiazol-5-yl)benzyl)pyrrolidine-2-carboxamide] |  | 11/11%
